Data set [1] has as its system peptide 1 (A-beta1-42 peptide). As to the kind of experiment: CD titration of iron-complexed peptide 1 with silanes (Example 9). The class given is biochemical, human.
The subject of data set [2] is Caco-2 cells.
The next data set relates to NF-M17. The experiment in a line: CD titration of NF-M17 peptide/aluminum with silicon compounds (Example 1). Format: biochemical, human.
The test system of data set [3] is A-beta1-42 peptide. The class given is biochemical, human.
In data set [4] the target is T1, A-beta1-42 peptide (Homo sapiens, UniProt P05067). The class given is biochemical.
T1 sequence (P05067 672-713): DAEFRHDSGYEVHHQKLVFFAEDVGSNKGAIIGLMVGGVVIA
A short description of a further data set: in vitro. Particulars: human, Caco-2.
Data set [5] deals with Caco-2 cells. Particulars: for Permeation Coefficient (cm/sec) Mean ± SD, where applicable: human.
The test system of the next data set is A-beta antigen. The experiment in a line: Slot blot of A-beta antigen extracted from Alzheimer's brain tissue sections (Example 8). Set-up: species or system human.
The target in data set [6] is T1, A-beta1-42 peptide. The class given is biochemical. This is another data set of the same source.

The source of these data is patent publication US8273726B2, “Compositions for treating and/or preventing diseases characterized by the presence of metal ions” (Brandeis University, priority 2002, dated 2012).

“Also recorded” adds a separate entry of the source. Structures can show the parent of a compound that is named as a salt. Where two headings read alike, the source gives them in different places.

For `C[Si](O)(O)CCCC#N` [3f, (dihydroxy)methyl(3-cyanopropyl)silane], in data set [1], the “return of the helical CD spectrum on titration of iron-complexed peptide 1” value is reported as “dosage effect is evident, but non-linear” and the “titration point showing the greatest degree of recovery” value is listed as 0.25 eq.

Turning to “(dichloro)methylsilylbutyronitrile [DCMSBN]”, in the data set on Caco-2 cells [2], the “relative transport across Caco-2 cells (FIG. 29B vs FIG. 29A)” value was “more transport” and the “transport across Caco-2 cells” value is reported as “significant amount of transport”. Besides, in the data set with NF-M17, the “Restore original spectra?” value is on record as “Yes” and the “equivalents at which the CD spectrum of NF-M17/aluminum was restored to its original shape” value is given as “around 32 equivalents”. Further, the “restoration of the original CD spectrum of A-beta1-42 peptide after exposure to aluminum” value (“restoration … to aluminum” below) in the data set with A-beta1-42 peptide [3] was “at least partially restored”.

As for `C[Si](Cl)(Cl)CCC#N` [CEMS, 2-cyanoethylmethyldichlorosilane], the “protection of the helical structure of A-beta1-42 against amyloid formation by aluminum (III)” value on A-beta1-42 peptide [4] is given as “protection of the helical structure”. Besides, in the data set “in vitro”, the Papp A→B – broadly, how fast a substance crosses the layer from the apical side – was found to be 4.6 ×10⁻⁶ cm/s.

As for triethoxysilylbutyronitrile [TESB], in the data set on Caco-2 cells [5] (Caco-2), the “permeation of Caco-2 cells relative to mannitol” value is listed as “at least four times greater” and the “Permeation Coefficient (cm/sec) Mean ± SD, where applicable” value is reported as 3.0 × 10^−5 (n = 2) cm/sec. Also, in the data set on Caco-2 cells [2], the “relative transport across Caco-2 cells (FIG. 29B vs FIG. 29A)” value was “more transport” and the “transport across Caco-2 cells” value is listed as “significant amount of transport”. Further, the “restoration … to aluminum” value in the data set with A-beta1-42 peptide [3] is listed as “at least partially restored; also recorded: reverses aluminum-induced denaturation”.

Consider `C[Si](Cl)(Cl)CC[Si](C)(Cl)Cl` [compound 1042, 1,2-(methyldichlorosilyl)ethane], for which, in the data set with Caco-2 cells [5] (Caco-2), the “crossing of the epithelial barrier in the Caco-2 model” value is “crossed the epithelial barrier efficiently” and the “permeation of Caco-2 cells relative to mannitol” value was “at least four times greater”. In addition, the “Permeation Coefficient (cm/sec) Mean ± SD, where applicable” value in the data set on Caco-2 cells [5] (Caco-2, 60 min, 20 mM) is 2.5 × 10^−5 (n = 2) cm/sec. Also, the “Total Extracted” value in the data set on A-beta antigen (Braak V tissue, 1 h at room temperature, corrected for volume dilution) stood at 14.0 fmol. For the same compound, the “share of total antigen released to the extract” value in the data set on A-beta antigen (based on the intensity from urea-solubilized tissues) is listed as “approximately 12%”.

Consider `CC[Si](Cl)(Cl)CC` [DCDES, dichlorodiethylsilane], for which, in the data set with NF-M17, the “Restore original spectra?” value is reported as “Yes” and the “equivalents at which the CD spectrum of NF-M17/aluminum was restored to its original shape” value is “around 32 equivalents”. Moreover, in the data set with A-beta1-42 peptide [3], the “restoration … to aluminum” value is reported as “at least partially restored”.

triethoxysilylpropionitrile [TESP]: the “restoration … to aluminum” value in the data set with A-beta1-42 peptide [3] is recorded as “at least partially restored”.

In the case of `[Zn]` [Zinc], the “effect of the metal on the A-beta1-42 CD spectrum” value (shortened to “effect of the metal”) at A-beta1-42 peptide [6] is reported as “minor or no effects”.

For `CN(C)[Si](N(C)C)(N(C)C)N(C)C` [tetrakis, tetrakis(dimethylamino)silane], the “restoration … to aluminum” value with A-beta1-42 peptide [3] was “at least partially restored”.

`[Fe+2]` [iron (II)]: the “effect of the metal” value at A-beta1-42 peptide [6] is given as “minor or no effects”.

For `C[Si](Cl)(Cl)c1ccccc1` [MPDS, methylphenyldichlorosilane], in the data set on NF-M17, the “Restore original spectra?” value is reported as “Yes” and the “equivalents at which the CD spectrum of NF-M17/aluminum was restored to its original shape” value was “around 32 equivalents”.

Take `NCCC[Si](O)(O)O` [APST, 3-aminopropylsilantriol]: in the data set with NF-M17, the “Restore original spectra?” value is on record as “Yes”, the “chelation of aluminum compared to sodium orthosilicate” value is “improved chelation” and the “restoration of the CD spectrum of NF-M17/aluminum to its original shape” value is “able to restore”.

Consider `CC(=O)O[Si](OC(C)=O)(OC(C)=O)OC(C)=O` [TAS, tetraacetooxysilane], for which, in the data set with A-beta1-42 peptide [3], the “restoration … to aluminum” value was “at least partially restored”.

For the compound `Cl` [HCl, hydrochloric acid, reference compound], the “extraction of A-beta antigen from Alzheimer's tissue” value in the data set on A-beta antigen is “no detectable antigen”. Further, the “reversing the helix-coil transition by acid” value in data set [1] is given as “effective for reversing the helix-coil transition”.

`[Fe+3]` [iron (III)]: the “effect of the metal” value at A-beta1-42 peptide [6] is recorded as “strong effects”.

Turning to `CCCCCC[Si](C)(Cl)Cl` [HMDS, hexylmethyldichlorosilane], in the data set with NF-M17, the “Restore original spectra?” value is on record as “Yes” and the “equivalents at which the CD spectrum of NF-M17/aluminum was restored to its original shape” value is given as “around 32 equivalents”. For the same compound, the “restoration … to aluminum” value in the data set with A-beta1-42 peptide [3] is “at least partially restored”.

`C1CC[Si]2(CCCCO2)OC1` [SDSU, 1,7-dioxa-6-sila-spiro[5.5]undecane]: the “transport across Caco-2 cells” value in the data set with Caco-2 cells [2] was “significant amount of transport”. Also, in the data set on A-beta1-42 peptide [3], the “restoration … to aluminum” value is given as “at least partially restored”.

As to `CC[Si](O)(CC)CC` [TES, triethylsilanol], in the data set with NF-M17, the “Restore original spectra?” value is “No” and the “restoration of the CD spectrum of NF-M17/aluminum to its original shape” value is “did not restore”. Further, the “restoration … to aluminum” value with A-beta1-42 peptide [3] was “at least partially restored”.

Regarding `CCC(C#N)C[Si](C)(Cl)Cl` (centres unmarked) [CBMS, 2-cyanobutylmethyldichlorosilane], the “Total Extracted” value in the data set with A-beta antigen stood at 5.2 fmol. The same compound showed a Papp A→B in the data set “in vitro” of 6.5 ×10⁻⁶ cm/s.

For the compound `CCCCCCCC[Si](Cl)(Cl)Cl` [OTCS, n-octyltrichlorosilane], in the data set on NF-M17, the “Restore original spectra?” value is recorded as “(gelation of OTCS)” and the “restoration of the CD spectrum of NF-M17/aluminum to its original shape” value is “did not restore”.

Regarding `N#CCCC[Si](Cl)(Cl)Cl` [CPTCS, 3-cyanopropyltrichlorosilane], in the data set with NF-M17, the “Restore original spectra?” value is listed as “Yes” and the “equivalents at which the CD spectrum of NF-M17/aluminum was restored to its original shape” value is reported as “around 32 equivalents”. In the data set on A-beta1-42 peptide [3], the “reversal of the effect of aluminum on the CD spectrum of A-beta1-42” value is listed as “Moderate reversal; also recorded: almost full reversal”.

`[Cu]` [copper]: on A-beta1-42 peptide [6], the “effect of the metal” value is on record as “strong effects”.

dichlorosilacyclobutane [DCSCB]: in the data set on Caco-2 cells [2], the “transport across Caco-2 cells” value is “significant amount of transport”. For the same compound, in the data set with A-beta1-42 peptide [3], the “restoration … to aluminum” value is “at least partially restored”.

For “trihydroxysilylmethyl phosphonate [TSMP]”, in the data set with Caco-2 cells [5] (Caco-2), the “permeation of Caco-2 cells relative to mannitol” value is “slower permeation than mannitol”.

With `CC(C)(C)[Si](C)(C)O` [TBDMS, tert-butyldimethylsilanol], in the data set on NF-M17, the “Restore original spectra?” value is “No” and the “restoration of the CD spectrum of NF-M17/aluminum to its original shape” value was “did not restore”.

In the case of `O.O.O.O.O.O.O.O.O.O=[Si]([O-])[O-].[Na+].[Na+]` [sodium metasilicate, sodium metasilicate nonahydrate, reference compound], the “equivalents at which the CD curve began to return / showed some return to its original shape” value in the data set with NF-M17 (NF-M17 with 8 equivalents of aluminum) was “about 32 equivalents”.

In the case of `CC[Si](O)(CC)Cc1ccccc1` [BDS, benzyldiethylsilanol], in the data set on NF-M17, the “Restore original spectra?” value is on record as “No” and the “restoration of the CD spectrum of NF-M17/aluminum to its original shape” value is “did not restore”.

For `CC(C)[Si](Cl)(Cl)C(C)C` [DCDIPS, dichlorodiisopropylsilane], in the data set on NF-M17, the “Restore original spectra?” value is reported as “Yes” and the “equivalents at which the CD spectrum of NF-M17/aluminum was restored to its original shape” value was “around 32 equivalents”. Moreover, the “restoration … to aluminum” value with A-beta1-42 peptide [3] was “at least partially restored”.

In the case of `CC(C#N)C[Si](C)(Cl)Cl` (centres unmarked) [CPMS, 2-cyanopropylmethyldichlorosilane], in the data set with A-beta antigen, the “Total Extracted” value is listed as 6.0 fmol and the “extraction of A-beta antigen from Alzheimer's tissue” value is listed as “no detectable antigen”. This compound gave a Papp A→B in the data set “in vitro” of 6.1 ×10⁻⁶ cm/s.

In the case of Aluminum, on A-beta1-42 peptide [6], the “effect of the metal” value was “decreases with higher concentrations; also recorded: strong effects”.

Regarding `O[Si](O)(c1ccccc1)c1ccccc1` [DPSD, diphenylsilandiol], the “Restore original spectra?” value with NF-M17 (CD spectrum of NF-M17 with 8 equivalents of aluminum, in TFE) is “(DMSO interfered with spectra)”. Moreover, the “restoration of the CD spectrum of NF-M17/aluminum to its original shape” value with NF-M17 (NF-M17 with 8 equivalents of aluminum, in TFE) was “did not restore”.
